Marks after values point to notes of the source that are not given here.
What was measured:
histamine H2 = target: T1, histamine H2 (Homo sapiens, UniProt P25021); assay: radioligand displacement, histamine H2; format: binding; details: histamine H2, human being; ligand 10 μM, duplicates
T1 construct: MDS Pharma Services (contract laboratory)
Description: (§1) The firm MDS Pharma Services [http://www.mdsps.com] carried out this test in duplicates at ligand concentration 10 μM by the displacement of the corresponding radioactive-labeled ligand. Test results, expressed in percent of ligand replacement (%), represented in Table 2 and in FIG. 1.

sigma σ1 = target: T2, sigma σ1 (Homo sapiens, UniProt Q99720); assay: radioligand displacement, sigma σ1; format: binding; details: sigma σ1, human being; ligand 10 μM, duplicates
T2 construct: MDS Pharma Services (contract laboratory)
T2 sequence (Q99720 whole entry): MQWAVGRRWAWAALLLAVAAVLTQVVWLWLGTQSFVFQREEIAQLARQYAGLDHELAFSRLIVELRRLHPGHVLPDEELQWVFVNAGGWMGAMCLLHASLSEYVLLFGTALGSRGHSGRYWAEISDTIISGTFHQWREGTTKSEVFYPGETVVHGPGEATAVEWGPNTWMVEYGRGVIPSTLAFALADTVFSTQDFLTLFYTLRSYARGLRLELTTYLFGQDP
Description: as §1

dopamine D2S = target: T3, dopamine D2S (Homo sapiens, UniProt P14416); assay: radioligand displacement, dopamine D2S; format: binding; details: human being, ligand 10 μM, duplicates
T3 construct: MDS Pharma Services (contract laboratory)
T3 sequence (P14416 1-414 isoform P14416-2): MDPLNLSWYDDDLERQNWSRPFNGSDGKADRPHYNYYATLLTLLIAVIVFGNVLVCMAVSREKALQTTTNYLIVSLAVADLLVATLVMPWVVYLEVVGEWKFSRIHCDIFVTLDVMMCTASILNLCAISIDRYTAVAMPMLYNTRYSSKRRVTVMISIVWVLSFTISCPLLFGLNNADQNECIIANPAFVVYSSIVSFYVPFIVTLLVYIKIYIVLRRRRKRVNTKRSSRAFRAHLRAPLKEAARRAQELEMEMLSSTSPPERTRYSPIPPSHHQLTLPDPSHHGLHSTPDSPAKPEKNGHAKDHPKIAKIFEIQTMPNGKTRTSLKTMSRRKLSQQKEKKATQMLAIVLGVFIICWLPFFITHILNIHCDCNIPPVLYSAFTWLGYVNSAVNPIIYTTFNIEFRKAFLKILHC
Description: as §1

histamine H1 = target: T4, histamine H1 (Homo sapiens, UniProt P35367); assay: radioligand displacement, histamine H1; format: binding; details: histamine H1, human being; ligand 10 μM, duplicates
T4 construct: MDS Pharma Services (contract laboratory)
T4 sequence (P35367 whole entry): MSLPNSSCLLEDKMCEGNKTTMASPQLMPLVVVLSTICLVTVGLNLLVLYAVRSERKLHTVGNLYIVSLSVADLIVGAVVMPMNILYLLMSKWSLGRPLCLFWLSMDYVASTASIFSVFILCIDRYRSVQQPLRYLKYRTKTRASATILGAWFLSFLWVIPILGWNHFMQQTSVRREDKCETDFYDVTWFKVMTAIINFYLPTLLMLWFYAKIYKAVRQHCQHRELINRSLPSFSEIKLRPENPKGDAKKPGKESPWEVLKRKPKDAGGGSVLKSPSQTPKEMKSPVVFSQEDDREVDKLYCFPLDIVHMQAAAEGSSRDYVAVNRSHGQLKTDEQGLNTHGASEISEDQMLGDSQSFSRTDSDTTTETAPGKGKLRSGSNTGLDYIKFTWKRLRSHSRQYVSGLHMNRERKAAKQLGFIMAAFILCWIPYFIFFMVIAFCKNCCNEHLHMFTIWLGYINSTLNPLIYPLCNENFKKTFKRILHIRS
Description: as §1

serotonin 5-HT2B = target: T5, serotonin 5-HT2B (Homo sapiens, UniProt P41595); assay: radioligand displacement, serotonin 5-HT2B; format: binding; details: human being, ligand 10 μM, duplicates
T5 construct: MDS Pharma Services (contract laboratory)
Description: as §1

serotonin 5-HT7 = target: T6, serotonin 5-HT7 (Homo sapiens, UniProt P34969); assay: radioligand displacement, serotonin 5-HT7; format: binding; details: serotonin 5-HT7, human being; ligand 10 μM, duplicates
T6 construct: MDS Pharma Services (contract laboratory)
Description: as §1

[1] = target: T7, dopamine transporter (DAT) (Homo sapiens, UniProt Q01959); assay: radioligand displacement, dopamine transporter; format: binding; details: human being, ligand 10 μM, duplicates
T7 construct: MDS Pharma Services (contract laboratory)
Description: as §1

male mice of BALB/c line = assay: Mice Behavior in the Elevated Plus Maze; format: in vivo; details: 5 minutes, FIG. 8-10
Description: The length of maze arms makes 30 cm, the width 5 cm, height of walls 15 cm. Two opposite arms are closed from sides and end walls with prasparent walls, the two others are lighted and opened. A mouse was placed in the maze center and during 5 minutes the number of opened and closed arm entries and the time spent by the animals in opened and closed arms were registered. On this evidence indexes of opened arms preference were calculated as a ratio of the number of opened arm entries and also duration of their stay in the opened arms to the total number of entries into all of arms and duration of stay in them. Being in normal state animals avoid opened arms (index of preference makes 0.2-0.3). Compounds with anxiolytic activity (tranquilizing activity) run this value up to 0.5-0.6 and more, and also decrease the number of defecations without changing overall physical activity (general number of arm entries).

sodium channel, site 2 = assay: radioligand displacement, sodium channel site 2; format: binding; details: site 2, rat, ligand 10 μM, duplicates
Description: as §1

sigma σ2 = target: T8, sigma σ2 (Rattus norvegicus, UniProt Q5U3Y7); assay: radioligand displacement, sigma σ2; format: binding; details: ligand 10 μM, duplicates
T8 construct: MDS Pharma Services (contract laboratory)
Description: as §1

serotonin 5-HT1B = target: T9, serotonin 5-HT1B (Homo sapiens, UniProt P28222); assay: radioligand displacement, serotonin 5-HT1B; format: binding; details: human being, ligand 10 μM, duplicates
T9 construct: MDS Pharma Services (contract laboratory)
Description: as §1

adrenergic α1B = target: T10, adrenergic α1B (Rattus norvegicus, UniProt P15823); assay: radioligand displacement, adrenergic α1B; format: binding; details: ligand 10 μM, duplicates
T10 construct: MDS Pharma Services (contract laboratory)
T10 sequence (P15823 whole entry): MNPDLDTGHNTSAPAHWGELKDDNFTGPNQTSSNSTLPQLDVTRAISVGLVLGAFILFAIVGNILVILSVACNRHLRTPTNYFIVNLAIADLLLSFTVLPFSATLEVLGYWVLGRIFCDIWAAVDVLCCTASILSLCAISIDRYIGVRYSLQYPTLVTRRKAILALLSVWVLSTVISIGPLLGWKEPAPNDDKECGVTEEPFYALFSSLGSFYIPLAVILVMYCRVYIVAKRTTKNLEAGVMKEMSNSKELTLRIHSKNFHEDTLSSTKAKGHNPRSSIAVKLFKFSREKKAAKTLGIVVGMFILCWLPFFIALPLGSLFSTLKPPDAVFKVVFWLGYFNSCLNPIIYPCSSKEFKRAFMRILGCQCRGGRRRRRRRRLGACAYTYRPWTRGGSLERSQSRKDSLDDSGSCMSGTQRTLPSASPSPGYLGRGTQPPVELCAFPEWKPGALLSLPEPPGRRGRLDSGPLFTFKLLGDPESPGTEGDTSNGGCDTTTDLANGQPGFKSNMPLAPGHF
Description: as §1

adrenergic α2A = target: T11, adrenergic α2A (Homo sapiens, UniProt P08913); assay: radioligand displacement, adrenergic α2A; format: binding; details: human being, ligand 10 μM, duplicates
T11 construct: MDS Pharma Services (contract laboratory)
Description: as §1

adrenergic β2 = target: T12, adrenergic β2 (Homo sapiens, UniProt P07550); assay: radioligand displacement, adrenergic β2; format: binding; details: adrenergic β2, human being; ligand 10 μM, duplicates
T12 construct: MDS Pharma Services (contract laboratory)
T12 sequence (P07550 whole entry): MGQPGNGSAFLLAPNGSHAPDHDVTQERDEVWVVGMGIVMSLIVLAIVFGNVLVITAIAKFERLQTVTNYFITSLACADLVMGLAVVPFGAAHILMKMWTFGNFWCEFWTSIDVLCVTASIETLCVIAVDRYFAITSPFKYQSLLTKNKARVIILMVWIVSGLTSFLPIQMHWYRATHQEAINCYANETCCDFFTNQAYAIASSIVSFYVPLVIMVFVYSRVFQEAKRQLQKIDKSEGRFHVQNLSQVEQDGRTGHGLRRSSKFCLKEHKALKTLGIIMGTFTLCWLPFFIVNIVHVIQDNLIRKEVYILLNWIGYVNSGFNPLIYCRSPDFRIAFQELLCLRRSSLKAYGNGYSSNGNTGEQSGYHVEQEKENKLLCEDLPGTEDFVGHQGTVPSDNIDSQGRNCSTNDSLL
Description: as §1

serotonin 5-HT2C = target: T13, serotonin 5-HT2C (Homo sapiens, UniProt P28335); assay: radioligand displacement, serotonin 5-HT2C; format: binding; details: human being, ligand 10 μM, duplicates
T13 construct: MDS Pharma Services (contract laboratory)
Description: as §1

[2] = test system: calcium channel of L-type, benzothiazepine; assay: radioligand displacement, L-type calcium channel (benzothiazepine); format: binding; details: rat, ligand 10 μM, duplicates
Description: as §1

dopamine D1 = target: T14, dopamine D1 (Homo sapiens, UniProt P21728); assay: radioligand displacement, dopamine D1; format: binding; details: dopamine D1, human being; ligand 10 μM, duplicates
T14 construct: MDS Pharma Services (contract laboratory)
Description: as §1

dopamine D2L = target: T15, dopamine D2L (Homo sapiens, UniProt P14416); assay: radioligand displacement, dopamine D2L; format: binding; details: human being, ligand 10 μM, duplicates
T15 construct: MDS Pharma Services (contract laboratory)
T15 sequence (P14416 whole entry): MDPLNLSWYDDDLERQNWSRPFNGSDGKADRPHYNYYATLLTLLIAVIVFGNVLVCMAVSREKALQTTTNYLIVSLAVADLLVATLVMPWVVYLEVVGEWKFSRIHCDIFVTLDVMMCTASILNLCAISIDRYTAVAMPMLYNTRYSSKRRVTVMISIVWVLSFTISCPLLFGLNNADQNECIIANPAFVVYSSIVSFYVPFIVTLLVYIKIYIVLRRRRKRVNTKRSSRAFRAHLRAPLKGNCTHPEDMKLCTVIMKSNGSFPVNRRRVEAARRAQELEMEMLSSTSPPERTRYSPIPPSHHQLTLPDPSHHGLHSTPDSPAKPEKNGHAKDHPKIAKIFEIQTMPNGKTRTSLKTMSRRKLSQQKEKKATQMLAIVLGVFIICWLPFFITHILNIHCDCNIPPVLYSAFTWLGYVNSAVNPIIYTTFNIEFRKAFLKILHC
Description: as §1

serotonin 5-HT6 = target: T16, serotonin 5-HT6 (Homo sapiens, UniProt P50406); assay: radioligand displacement, serotonin 5-HT6; format: binding; details: serotonin 5-HT6, human being; ligand 10 μM, duplicates
T16 construct: MDS Pharma Services (contract laboratory)
T16 sequence (P50406 whole entry): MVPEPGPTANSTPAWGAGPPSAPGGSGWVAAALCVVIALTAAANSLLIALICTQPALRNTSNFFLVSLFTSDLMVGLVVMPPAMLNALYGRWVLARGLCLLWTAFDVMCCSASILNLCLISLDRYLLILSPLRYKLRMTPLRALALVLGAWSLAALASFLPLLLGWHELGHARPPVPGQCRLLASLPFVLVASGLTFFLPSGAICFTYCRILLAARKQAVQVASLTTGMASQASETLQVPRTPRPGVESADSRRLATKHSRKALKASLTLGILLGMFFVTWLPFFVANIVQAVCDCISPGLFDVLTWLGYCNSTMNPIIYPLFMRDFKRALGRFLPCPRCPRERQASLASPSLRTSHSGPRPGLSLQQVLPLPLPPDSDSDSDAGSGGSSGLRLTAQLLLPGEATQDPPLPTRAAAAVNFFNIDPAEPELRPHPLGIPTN
Description: as §1

[3] = target: T17, norepinephrine transporter (NET) (Homo sapiens, UniProt P23975); assay: radioligand displacement, norepinephrine transporter; format: binding; details: human being, ligand 10 μM, duplicates
T17 construct: MDS Pharma Services (contract laboratory)
T17 sequence (P23975 whole entry): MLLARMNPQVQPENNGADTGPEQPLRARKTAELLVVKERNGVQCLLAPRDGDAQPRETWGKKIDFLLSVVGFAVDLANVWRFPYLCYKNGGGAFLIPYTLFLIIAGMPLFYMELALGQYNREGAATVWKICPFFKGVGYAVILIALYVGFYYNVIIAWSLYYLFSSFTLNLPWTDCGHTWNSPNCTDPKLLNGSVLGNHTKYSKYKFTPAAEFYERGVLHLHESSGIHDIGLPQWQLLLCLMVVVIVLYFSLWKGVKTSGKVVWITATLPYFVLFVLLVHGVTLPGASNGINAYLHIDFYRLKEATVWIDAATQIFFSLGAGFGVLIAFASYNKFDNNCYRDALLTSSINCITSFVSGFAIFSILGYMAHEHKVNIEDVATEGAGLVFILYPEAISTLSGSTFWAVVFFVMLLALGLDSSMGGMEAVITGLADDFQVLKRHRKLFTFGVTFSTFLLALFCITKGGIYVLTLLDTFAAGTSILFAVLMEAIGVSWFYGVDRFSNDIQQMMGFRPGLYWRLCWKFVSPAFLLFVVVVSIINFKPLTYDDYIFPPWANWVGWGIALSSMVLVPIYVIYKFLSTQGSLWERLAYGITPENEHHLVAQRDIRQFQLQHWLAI
Description: as §1

adrenergic α1A = target: T18, adrenergic α1A (Rattus norvegicus, UniProt P43140); assay: radioligand displacement, adrenergic α1A; format: binding; details: ligand 10 μM, duplicates
T18 construct: MDS Pharma Services (contract laboratory)
T18 sequence (P43140 whole entry): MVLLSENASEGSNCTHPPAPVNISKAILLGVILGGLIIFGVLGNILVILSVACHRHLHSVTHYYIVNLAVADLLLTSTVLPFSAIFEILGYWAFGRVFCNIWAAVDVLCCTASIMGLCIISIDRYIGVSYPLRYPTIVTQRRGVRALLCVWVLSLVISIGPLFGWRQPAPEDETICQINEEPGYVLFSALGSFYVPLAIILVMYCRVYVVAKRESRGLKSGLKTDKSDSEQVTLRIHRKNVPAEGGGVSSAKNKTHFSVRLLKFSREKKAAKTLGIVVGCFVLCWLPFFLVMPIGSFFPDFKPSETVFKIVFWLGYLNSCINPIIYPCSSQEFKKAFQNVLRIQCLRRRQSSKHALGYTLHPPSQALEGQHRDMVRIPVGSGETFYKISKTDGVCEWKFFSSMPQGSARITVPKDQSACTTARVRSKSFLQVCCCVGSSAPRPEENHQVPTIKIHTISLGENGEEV
Description: as §1

dopamine D3 = target: T19, dopamine D3 (Homo sapiens, UniProt P35462); assay: radioligand displacement, dopamine D3; format: binding; details: dopamine D3, human being; ligand 10 μM, duplicates
T19 construct: MDS Pharma Services (contract laboratory)
T19 sequence (P35462 whole entry): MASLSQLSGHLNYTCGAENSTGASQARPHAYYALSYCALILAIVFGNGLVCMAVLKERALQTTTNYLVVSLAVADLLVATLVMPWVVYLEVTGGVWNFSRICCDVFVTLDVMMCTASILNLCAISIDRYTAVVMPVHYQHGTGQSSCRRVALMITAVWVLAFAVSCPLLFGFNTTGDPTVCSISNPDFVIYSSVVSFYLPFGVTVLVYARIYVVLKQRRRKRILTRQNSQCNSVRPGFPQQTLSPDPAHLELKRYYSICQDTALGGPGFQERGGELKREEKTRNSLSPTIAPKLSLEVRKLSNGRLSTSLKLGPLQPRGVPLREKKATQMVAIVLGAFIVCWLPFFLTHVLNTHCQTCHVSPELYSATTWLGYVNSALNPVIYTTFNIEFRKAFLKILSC
Description: as §1

T1 sequence (P25021 whole entry): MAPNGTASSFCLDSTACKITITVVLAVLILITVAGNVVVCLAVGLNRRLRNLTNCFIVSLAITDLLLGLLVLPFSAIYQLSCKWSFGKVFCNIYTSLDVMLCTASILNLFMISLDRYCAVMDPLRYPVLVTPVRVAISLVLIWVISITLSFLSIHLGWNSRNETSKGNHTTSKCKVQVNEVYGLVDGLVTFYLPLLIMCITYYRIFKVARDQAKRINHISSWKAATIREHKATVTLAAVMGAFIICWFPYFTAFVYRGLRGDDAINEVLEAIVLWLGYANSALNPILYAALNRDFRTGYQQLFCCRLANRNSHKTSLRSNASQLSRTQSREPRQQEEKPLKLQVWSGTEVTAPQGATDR

## CN1CCc2c(c3ccccc3n2Cc2ccccc2)C1 [formula 1, 3-methyl-9-benzyl-1,2,3,4-tetrahydrocarboline naphthalene-1,5-disulfonate]
Histamine H2
  % of radioactive-labeled ligand replacement: 97%
Sigma σ1
  % of radioactive-labeled ligand replacement: 75%
Dopamine D2S
  % of radioactive-labeled ligand replacement: 60%
Histamine H1
  % of radioactive-labeled ligand replacement: 97%
Serotonin 5-HT2B
  % of radioactive-labeled ligand replacement: 52%
Serotonin 5-HT7
  % of radioactive-labeled ligand replacement: 76%
[1]
  % of radioactive-labeled ligand replacement: 99%
Male mice of BALB/c line
  anxiolytic (tranquilizing) action: anxiolytic (tranquilizing) activity comparable with the activity of Buspirone and Lorazepam
Sodium channel, site 2
  % of radioactive-labeled ligand replacement: 93%
Sigma σ2
  % of radioactive-labeled ligand replacement: 52%
Serotonin 5-HT1B
  % of radioactive-labeled ligand replacement: 64* %
Adrenergic α1B
  % of radioactive-labeled ligand replacement: 70%
Adrenergic α2A
  % of radioactive-labeled ligand replacement: 100%
Adrenergic β2
  % of radioactive-labeled ligand replacement: 76%
Serotonin 5-HT2C
  % of radioactive-labeled ligand replacement: 79%
[2]
  % of radioactive-labeled ligand replacement: 65%
Dopamine D1
  % of radioactive-labeled ligand replacement: 62%
Dopamine D2L
  % of radioactive-labeled ligand replacement: 51%
Serotonin 5-HT6
  % of radioactive-labeled ligand replacement: 79%
[3]
  % of radioactive-labeled ligand replacement: 67%
Adrenergic α1A
  % of radioactive-labeled ligand replacement: 70%
Dopamine D3
  % of radioactive-labeled ligand replacement: 80%

— patent publication US20110136853A1, “LIGAND WITH A BROAD SPECTRUM OF PHARMACOLOGICAL ACTIVITY, A PHARMACEUTICAL COMPOSITION, A MEDICINAL AGENT AND A METHOD OF TREATMENT” (priority 2008, published 2011)
